{
  "source": "patent US20210038732A1",
  "about": "“ANTICANCER MICRORNA AND LIPID FORMULATIONS THEREOF” (INTERNA TECHNOLOGIES B.V., priority 2018, published 2021)",
  "key": {"[1]": {"test_system": "A2058 melanoma cells", "experiment": "Adenosine assay", "format": "cell-based, human", "details": "miRNA-193a-3p at 10 nM, vs untreated, mock, scrambled", "method": "4000 A2058 melanoma cells were seeded per well in a 96 well plate. 4h after seeding, cells were transfected with different concentrations of miRNA-193a-3p, scrambled control, siNT5E and siPool as control. 24h post transfection the cells were treated with 500 μM AMP and adenosine measurement was performed 24h post-treatment following steps from adenosine measurement kit (BioVision)."}, "[2]": {"test_system": "4T1 mouse tumor cells", "experiment": "4T1 re-challenge of previously treated mice, with or without T-cell depletion (Example 4.11)", "format": "in vivo", "from_the_text": "In all cases, monoclonal antibodies were delivered to mice by intraperitoneal injection in 200p1 phosphate-buffered saline. For depletion and neutralization experiments, CD4 (clone GK1.5) and CD8 (clone 2.43) antibodies were used simultaneously. Depletion or neutralization was commenced a week before tumor cell inoculation. For CD4+ and CD8+ T-cell depletion, […] of the indicated antibody was delivered on a QOD×3 schedule in the first week and then a Q3D schedule for 3 more weeks. Depletion of the desired T-cell population(s) was confirmed on whole blood by flow cytometry (data not shown). 100 μL whole blood was drawn per animal on day 0 and day 14 post tumor cell inoculation (day 0=24h post QOD×3, Day 14: 24h post QOD×3+Q3D for 2 weeks). Then mixed with the antibodies. After vortexing gently, the mix was incubated for 30 minutes in the dark at room temperature (RT). 2 ml of 1× FACS lysing buffer was added to the solution and incubated for 10 min at RT. Then the solution mix was centrifuged for 5 min and the supernatant was removed. Finally, the cells were resuspended in 150p1 of staining buffer and analyzed on a cytometer. All flow cytometry antibodies (anti-CD45-PerCP-cy55 (clone: 30-F11), anti-CD3-FITC (clone: 17A2) anti-CD4-APC (clone: RM4-4), anti-CD8-PE (clone: 53-6.7) were purchased from Biolegend except anti-CD3 from BD Biosciences. (QOD×3: every other day for 3 days, Q3D: every 3 days (Monday-Thursday)).\nTo investigate the T-cell mediated long-term immunity in miRNA-193a treated mice against 4T1 cancer cells, a new study with similar conditions to example 4.4 was performed. 5 days post-tumor inoculation, mice were randomized into 2 groups and received a similar treatment and dosing regimen as in example 4.4 (see Table 9, groups 1-2 only). After surgical removal of primary tumors when the group mean tumor volume reached 800 mm3, treatments were resumed and continued until day 58. […]"}, "[3]": {"test_system": "4T1 cells", "experiment": "Adoptive CD3+ T-cell transfer from survivors into naive mice, 4T1 challenge", "format": "in vivo", "details": "1×107 CD3+ T-cells iv; followed about 5 weeks; vs control naïve mice", "method": "Adoptive transfer of CD3+ T cells form the survivor mice into naive mice was performed after spleens, auxiliary, brachial, and inguinal lymph nodes excision. Cell suspension were made from the indicated organs and pooled. Then, CD3+ T-cells were isolated from the pool using magnetic beads according the manufacturer's protocol (Miltenyi Biotech). 1×107 CD3+ T-cells per mouse were injected intravenously.\nOn day 133 post-tumor cell inoculation CD3+ T-cells were recovered from the spleens, auxiliary, brachial, and inguinal lymph nodes of the surviving animals. T-cells were pooled and transferred i.v. to 6 naïve age-matched mice (1×107 CD3+ Tcells per mouse at day 0). One day post-T-cell transfer, animals were re-challenged with 3×10^5 4T1 cells in PBS (0.1 mL/mouse) in the right mammary fat pad of 6 naive age-matched mice (as control group) and the 6 mice that received CD3+ T-cells. Tumor growth was followed for about 5 weeks."}},
  "data": [
    {"substance": "miRNA-193a: duplex of the miRNA-193a-3p of SEQ ID NO: 218 (mimic, sense) with antisense strand SEQ ID NO: 219; naked in vitro, formulated in vivo (sense UGGGACUUUGUAGGCCAGUUTT; antisense AACUGGCCUACAAAGUCCCAGU; chemistry not given here; listed as Homo sapiens)", "values": [
      {"measurement": "Adenosine generation", "setting": "[1]", "result": "reduces"},
      {"measurement": "4T1 tumor growth after second re-challenge", "setting": "[2]; previously treated mice depleted for T cells (anti-CD4 + anti-CD8)", "result": "resulted in 4T1 tumor growth"},
      {"measurement": "4T1 tumor growth after second re-challenge", "setting": "[2]; previously treated mice not depleted for T cells", "result": "did not show a palpable 4T1 tumor"},
      {"measurement": "Tumor re-growth after 4T1 re-challenge", "setting": "[2]; re-challenge day 76, followed up to 3 weeks, vs naïve mice", "result": "did not develop any palpable tumor"},
      {"measurement": "4T1 tumor growth in naive mice that received CD3+ T-cells from treated survivors", "setting": "[3]", "result": "did not show any 4T1 tumor growth"}
    ]}
  ]
}
